Type in all cases: cell-based
Data set [1] can be described thus: Modulation activity at ER in human MCF7 cells assessed as reduction in cell viability after 48 hrs by MTT assay. To be noted: MCF7, 48 h.
Data set [2] concerns HEK-293T. Briefly: Cytotoxicity against HEK293T cells assessed as reduction in cell viability at <50 uM after 48 hrs by MTT assay. Conditions: human. (Formazan colour is commonly taken as a measure of viable cells.)
Data set [3] deals with HEK-293T. Briefly: Cytotoxicity against HEK293T cells assessed as reduction in cell viability after 48 hrs by MTT assay. Conditions: Homo sapiens.
Data set [4] has as its system HEK-293T. Briefly: Cytotoxicity against HEK293T cells assessed as reduction in cell viability up to 50 uM after 48 hrs by MTT assay. Conditions: human.

Bounds are passed on as bounds.

The term IC50 denotes the concentration that inhibits the measured activity by half. With `Cc1nc(Oc2ccc3c(c2)OC(N)=C(C#N)C3c2ccc(F)cc2)cc(N2CCN(CCO)CC2)n1` (stereo unspecified), the IC50 in data set [1] was 166 µM; in the data set with HEK-293T [3], 52 µM. Besides, the Activity result in the data set with HEK-293T [2] is given as “Toxic”.

On to `COc1ccc(C2C(C#N)=C(N)Oc3cc(Oc4cc(N5CCN(CCO)CC5)nc(C)n4)ccc32)cc1` (stereo unspecified), for which the IC50 is 104 µM in data set [1] and 55 µM in the data set with HEK-293T [3]. In the data set with HEK-293T [2], the Activity entry is recorded as “Toxic”.

`COc1cccc(C2C(C#N)=C(N)Nc3cc(Oc4cc(N5CCN(CCO)CC5)nc(C)n4)ccc32)c1` (stereo unspecified): the IC50 was 166 µM in data set [1] and 39 µM in the data set with HEK-293T [3]. Further, in the data set with HEK-293T [2], the Activity entry is given as “Toxic”.

Regarding `Cc1nc(Oc2ccc3c(c2)OC(N)=C(C#N)C3c2ccccc2Cl)cc(N2CCN(CCO)CC2)n1` (stereo unspecified), the IC50 in data set [1] was 119 µM; in the data set on HEK-293T [3], 79 µM. Besides, the Activity result in the data set on HEK-293T [2] was “Toxic”.

With `Cc1nc(Oc2ccc3c(c2)OC(N)=C(C#N)C3c2ccc(Cl)cc2)cc(N2CCN(CCO)CC2)n1` (stereo unspecified), the IC50 in data set [1] was determined as 73 µM; with HEK-293T [3], 18 µM. The Activity entry in the data set with HEK-293T [2] is listed as “Toxic”.

Take `Cc1nc(Oc2ccc3c(c2)NC(N)=C(C#N)C3c2ccc(F)cc2)cc(N2CCN(CCO)CC2)n1` (stereo unspecified): the IC50 came to 48 µM in data set [1] and 72 µM with HEK-293T [3]. Moreover, the Activity entry with HEK-293T [2] is “Toxic”.

For `COc1ccc(C2C(C#N)=C(N)Nc3cc(Oc4cc(N5CCN(CCO)CC5)nc(C)n4)ccc32)cc1` (stereo unspecified), the IC50 in data set [1] was 12 µM; with HEK-293T [3], 62 µM. For the same compound, the Activity result in the data set with HEK-293T [2] was “Toxic”.

For `Cc1nc(Oc2ccc3c(c2)NC(N)=C(C#N)C3c2ccccc2)cc(N2CCN(CCO)CC2)n1` (stereo unspecified), the IC50 in data set [1] came to 65 µM; in the data set on HEK-293T [3], 141 µM. Besides, the Activity entry in the data set on HEK-293T [4] is reported as “Non-Toxic”.

For `Cc1nc(Oc2ccc3c(c2)NC(N)=C(C#N)C3c2ccc(Br)cc2)cc(N2CCN(CCO)CC2)n1` (stereo unspecified), the IC50 in data set [1] worked out at 193 µM; in the data set with HEK-293T [3] it was 62 µM. Moreover, the Activity entry with HEK-293T [2] was “Toxic”.

In the case of `Cc1nc(Oc2ccc3c(c2)OC(N)=C(C#N)C3c2ccc([N+](=O)[O-])cc2)cc(N2CCN(CCO)CC2)n1` (stereo unspecified), the IC50 in data set [1] amounted to 30 µM; in the data set on HEK-293T [3], 105 µM. Moreover, the Activity entry in the data set on HEK-293T [4] is listed as “Non-Toxic”.

Turning to `Cc1nc(Oc2ccc3c(c2)OC(N)=C(C#N)C3c2ccccc2C)cc(N2CCN(CCO)CC2)n1` (stereo unspecified), the IC50 came to 61 µM in data set [1] and 56 µM in the data set with HEK-293T [3]. For the same compound, the Activity result in the data set on HEK-293T [2] is listed as “Toxic”.

Regarding `Cc1nc(Oc2ccc3c(c2)NC(N)=C(C#N)C3c2ccccc2Cl)cc(N2CCN(CCO)CC2)n1` (stereo unspecified), the IC50 was found to be 190 µM in data set [1] and 70 µM in the data set on HEK-293T [3]. Also, the Activity result in the data set with HEK-293T [2] is given as “Toxic”.

Consider `Cc1ccc(C2C(C#N)=C(N)Oc3cc(Oc4cc(N5CCN(CCO)CC5)nc(C)n4)ccc32)cc1` (stereo unspecified), for which the results for the IC50 (in data set [1]; with HEK-293T [3]) were 16 µM and above 200 µM, respectively. Further, in the data set with HEK-293T [4], the Activity result was “Non-Toxic”.

Consider `Cc1nc(Oc2ccc3c(c2)NC(N)=C(C#N)C3c2c(Cl)cccc2Cl)cc(N2CCN(CCO)CC2)n1` (stereo unspecified), for which the figures for the IC50 (in data set [1]; with HEK-293T [3]) were 102 µM and 62 µM, respectively. In the data set with HEK-293T [2], the Activity result is recorded as “Toxic”.

Consider `Cc1nc(Oc2ccc3c(c2)OC(N)=C(C#N)C3c2ccccc2)cc(N2CCN(CCO)CC2)n1` (stereo unspecified), for which the IC50 was 92 µM in data set [1] and above 200 µM in the data set on HEK-293T [3]. The Activity entry with HEK-293T [4] was “Non-Toxic”.

Regarding `Cc1ccc(C2C(C#N)=C(N)Nc3cc(Oc4cc(N5CCN(CCO)CC5)nc(C)n4)ccc32)cc1` (stereo unspecified), the IC50 was 48 µM in data set [1] and 140 µM in the data set with HEK-293T [3]. In addition, the Activity entry in the data set on HEK-293T [4] is listed as “Non-Toxic”.

Regarding `Cc1nc(Oc2ccc3c(c2)OC(N)=C(C#N)C3c2ccc(Br)cc2)cc(N2CCN(CCO)CC2)n1` (stereo unspecified), the IC50 in data set [1] is 91 µM; in the data set with HEK-293T [3], 19 µM. The Activity entry in the data set on HEK-293T [2] was “Toxic”.

Regarding `Cc1nc(Oc2ccc3c(c2)NC(N)=C(C#N)C3c2ccccc2C)cc(N2CCN(CCO)CC2)n1` (stereo unspecified), the figures for the IC50 (in data set [1]; in the data set with HEK-293T [3]) were 198 µM and 57 µM, respectively. In the data set on HEK-293T [2], the Activity result was “Toxic”.

In the case of `Cc1nc(Oc2ccc3c(c2)NC(N)=C(C#N)C3c2ccc(Cl)cc2)cc(N2CCN(CCO)CC2)n1` (stereo unspecified), the IC50 in data set [1] came to 170 µM; in the data set on HEK-293T [3] it was 95 µM. The Activity result in the data set with HEK-293T [2] is on record as “Toxic”.

Take `Cc1nc(Oc2ccc3c(c2)OC(N)=C(C#N)C3c2c(Cl)cccc2Cl)cc(N2CCN(CCO)CC2)n1` (stereo unspecified): the values for the IC50 (in data set [1]; in the data set on HEK-293T [3]) were 136 µM and 51 µM, respectively. Further, in the data set with HEK-293T [2], the Activity result was “Toxic”.

`COc1cc(/C=C/C(=O)CC(=O)/C=C/c2ccc(O)c(OC)c2)ccc1O` [CURCUMIN]: the IC50 in the data set with HEK-293T [3] is above 400 µM.

(Values after ChEMBL document CHEMBL4043165, “Synthesis, estrogen receptor binding affinity and molecular docking of pyrimidine-piperazine-chromene and -quinoline conjugates” (Bioorg Med Chem Lett, 2017).)
